Data as given in patent publication US8642008B2, “Molecular probe for imaging of pancreatic islets and use of the same” (priority 2009, dated 2014).

Assays:
[1] = tested on: pancreatic islets; conditions: cited from earlier work
[2] = tested on: GLP-1R-positive tumor cells; conditions: cited from earlier work
[3] = mouse, iv
Protocol: At points of 5 minutes, 15 minutes, 30 minutes, 60 minutes, and 120 minutes after the administration, organs were dissected out of the mice, respectively (n=5). The weight and the radioactivity of each organ were determined, and an accumulation amount (% dose/g) of the molecular probe was calculated from the radioactivity per unit weight. […] FIG. 1A is a graph showing how the accumulation of the molecular probe in each organ varied with time, and FIG. 1B is a graph of an enlarged part of FIG. 1A.
1, biodistribution of the same in a mouse was determined. […] The determination of biodistribution was carried out in the same manner as that in Example 1.
At points of 5 minutes, 15 minutes, 30 minutes, 60 minutes, and 120 minutes after the administration, organs were dissected out of the mice, respectively (n=5). The weight and the radioactivity of each organ were determined, and an accumulation amount (% dose/g) of the molecular probe was calculated from the radioactivity per unit weight. […] FIG. 5A is a graph showing how the accumulation of the molecular probe in each organ varied with time, and FIG. 5B is a graph of an enlarged part of 5A.

[4] = tested on: pancreatic β-cells; assay: Two-dimensional imaging analysis of pancreas sections of MIP-GFP mice (fluorescence and autoradiography); type: in vivo, mouse
Protocol: Two-dimensional imaging analysis was performed using transgenic mice that have a genetic background of C57BL/6 mice and express GFP (green fluorescent protein) under regulation of MIP (mouse insulin I gene promoter) (hereinafter these mice are referred to as “MIP-GFP mice”). […] Sections were cut out of the dissected pancreases, and each section was placed on a slide glass, covered with a cover glass. Fluorescence and radioactivity (autoradiography) of each section were determined using an image analyzer (trade name: Typhoon 9410, produced by GE Health Care Inc.) (exposure time: 14 hours).
Sections were cut out of the dissected pancreases, and fluorescence and radioactivity of each section were determined in the same manner as described above.
DPP (dipeptidyl peptidase) IV inhibitor (0.1 mL of 6 mg/mL solution) was administered by intravenous injection to unanesthetized MIP-GFP mice (male, weight: 20 g), and these mice were used as controls 1-2. […] Sections were cut out of the dissected pancreases, and fluorescence and radioactivity of each section were determined in the same manner as described above. […]
Sections were cut out of the dissected pancreases, and fluorescence and radioactivity of each section thus obtained were determined in the same manner as described above.

Substance	uptake in pancreatic islets [1]	uptake in the GLP-1R-positive tumor cells [2]	accumulation amount in the pancreas, times as much as that in the intestine ([3]; in vivo)	accumulation amount in the pancreas, times as much as that in the stomach ([3]; in vivo)	change with time of accumulation in the thyroid gland (deiodization metabolism in vivo) [3]	localization of the radioactivity signal versus GFP signal in pancreas sections ([4]; 30 and 60 minutes after administration)	radioactivity signal of pancreas sections after preliminary administration of cold probe exendin(9-39) ([4]; 30 minutes after probe)
Lys^40(Ahx-DTPA-^111In)Exendin-(9-39)	about 0.4%	about 7.5%					
formula (35): exendin(9-39) sequence, α-amino group at N-terminus labeled with [125I] 3-iodobenzoyl group, C-terminus amidated			not less than 11 times	not less than 3 times	no great change	consistent with that of the GFP signal	substantially no radioactivity signal was detected
